Measurements published in patent US5011838A, “Pharmacologically active 2-substituted 3-(2-ethoxyethyl) imidazo[4,5-b]pyridines and pharmaceutical compositions containing them” (Dompe Farmaceutici S.p.A., priority 1989, dated 1991).

Legend:
[1] = system: mortality induced by histamine; assay: Effect on the mortality induced by histamine; type: in vivo, male albino guinea pigs (Dunkin-Hartley); details: Cavia porcellus, po, 1 h; p.o., 60 min before 1.25 mg/kg i.v. histamine dihydrochloride; guinea pig; read-out: Mortality induced by hystamine ED50 p.o.
Protocol: The method described by Romer D. et al. (Med. Welt. 17,791, 1966) was followed and the tests were carried out on male albino guinea pigs (Dunkin-Hartley), weighing 350 to 450 g which were kept in cages with a grid floor, on an empty stomach for 24 hours with water ad libitum. The compounds under examination have been orally administered to the animals, dissolved in 0.5% carboxymethylcellulose, 60 minutes before intravenous administration of 1.25 mg/kg of histamine dihydrochloride in saline solution. In the control animals, treated with carboxymethylcellulose, the intravenous administration of histamine dihydrochloride induced a 100% mortality.
It has been evaluated ED50, which corresponds to the amount of the compound able to inhibit to 50% the mortality induced by histamine: estimation of ED50 has been made applying the `probit` method (Finney D. J. "Statistical method in biological assay", pg 512,1957).

[2] = system: mortality induced by compound 48/80; assay: Mortality inhibition by compound 48/80; type: in vivo, Sprague Dawley Nos male rats; details: ip, half an hour before 2 mg/kg i.v. compound 48/80; rat; 4 hours observation
Protocol: For evaluating the protection to the mortality induced by compound 48/80 administration the method described by C. J. E. Niemegeers et al. (Arch. Int. Pharmacodyn, 234,164,1978) was followed.
Sprague Dawley Nos male rats (Nossan, Correzzana, Milano) weighing 140 to 150 g, divided into groups of 10 animals each, on an empty stomach for 24 hours with water "ad libitum", were kept in cages with a grid floor, and treated intravenously with 2 mg/kg of compound 48/80 (1 ml/rat).
The animals were kept under observation for 4 hours taking note of their mortality. The results were expressed as the number of animals dead with respect to the number of treated animals. Compounds under examination or the carrier were administered half an hour before administration of compound 48/80 by intraperitoneal route, dissolved in H2 O (5 ml/kg). The experimental data were submitted to the variance analysis and to subsequent multiple comparisons according to Dunnet (D. J. Finney, in "Statistical Methods in Biological assay", Ed. L. Griffin and Co. Ltd., pag. 152,1957, Edition Ames Iowa, 1971).

[3] = Evaluation of the lethal dose50 (LD50), acute toxicity; details: in vivo, ip; mouse; 14 days observation
Protocol: Swiss Nos (Nossan, Correzzana, Milano) mice, weighing 18 to 20 g each, on an empty stomach for 18 hours with water "ad libitum" and kept in cages with grid floor, were used. The animals, divided into groups of 10 animals each, (5M+5F) were treated intraperitoneally (10 ml/kg) with the compounds under examination dissolved in water or suspended in 0.5% carboxymethylcellulose. The animals were kept in the cages and the mortality occurred within the following 6 hours was noted down. At the expiring of the 6 hours the animals were allowed to eat up to the end of the experimentation which lasted 14 days. During this period all the toxic symptoms and the mortality occuring were noted.
The animals which died during the test period and those which were sacrificed at the end of the same, underwent autopsy for a macroscopic examination of their main organs. The experimental data were statistically compared with the X^2 method and LD50 was extrapolated by the `probit` method.

| SMILES | ED50 [1] [mg/kg] | ED50 [2] [mg/kg] | LD50 at 336 h [3] [mg/kg] |
| --- | --- | --- | --- |
| CCOCCn1c(CCCN(C)C)nc2cccnc21 [Example 1, 3-(2-Ethoxyethyl)-2-(3-dimethylaminopropyl)-3H-imidazo [4,5-b] pyridine] | 0.03 | 0.5 | > 100 |
| CC(C)(C)c1ccc(C(O)CCCN2CCC(C(O)(c3ccccc3)c3ccccc3)CC2)cc1 (stereo not drawn) [Terfenadine, reference compound] | 0.436 | 1.09 | 620 |
| CCOCCn1c(CCN(C)C)nc2cccnc21 [Example 2, 3-(2-Ethoxyethyl)-2-(2-dimethylaminoethyl)-3 H-imidazo [4,5-b] pyridine] | 0.025 | 0.3 | > 100 |
| CCOCCn1c(CCCN2CCOCC2)nc2cccnc21.O=C(O)/C=C/C(=O)O.O=C(O)/C=C/C(=O)O [Example 9, 3-(2-Ethoxyethyl)-2-[3-(morpholin-4-yl)propyl]-3H-imidazo [4,5-b] pyridine difumarate] | 0.003 | 0.5 | > 100 |
